The source of these data is US20040043425A1, “Proteins, genes and their use for diagnosis and treatment of chronic asthma” (priority 2000, published 2004).

The subject of assay [1] is CAF-1. To be noted: thrombin 20 units/ml. The method, then:
Using the following procedure, proteins in primary cultures of human airway myofibroblasts were separated by isoelectric focusing followed by SDS-PAGE and analyzed. Different cultures were used, infra, and two different time points at 1 hour (referred to as “early”) and 6 hours (referred to as “late”) were taken. Parts 6.1.1 to 6.1.14 (inclusive) of the procedure set forth below are hereby designated as the “Reference Protocol”.
Primary cultures of human airway myofibroblasts (Hall IP, Kotlikoff M, Am J Physiol January 1995; 268(1 Pt 1): L1-11, Use of cultured airway myocytes for study of airway smooth muscle; Hirst S J, Eur Respir J April 1996; 9(4): 808-20, Airway smooth muscle cell culture: application to studies of airway wall remodeling and phenotype plasticity in asthma.) were treated by one, or a successive combination of, the following:
thrombin at 20 units/ml (Panettieri R A Jr, Hall I P, Maki C S, Murray R K, Am J Respir Cell Mol Biol August 1995; 13(2):205-16, Alpha-Thrombin increases cytosolic calcium and induces human airway smooth muscle cell proliferation).
(§1) dexamethasone at 1 μM (glucocorticoid).
theophylline 100 μM (Billington C K, Joseph S K, Swan C, Scott M G, Jobson T M, Hall I P, Am J Physiol March 1999; 276(3 Pt 1):L412-9, Modulation of human airway smooth muscle proliferation by type 3 phosphodiesterase inhibition).
Using the protein expression database, matching protein features present in test primary cultures and in control primary cultures were compared.

Assay [2] has as its system CAF-2. The experiment in a line: 2D electrophoresis fold change of CAF-2 in primary cultures of human airway myofibroblasts. The class given is cell-based. To be noted: thrombin 20 units/ml. The method, then: as §1
Assay [3] deals with CAF-5. The experiment in a line: 2D electrophoresis fold change of CAF-5 in primary cultures of human airway myofibroblasts. Conditions: thrombin 20 units/ml. The class given is cell-based. The protocol:
as §1

The test system of assay [4] is CAF-12. Description: 2D electrophoresis fold change of CAF-12 in primary cultures of human airway myofibroblasts. The class given is cell-based. Conditions: thrombin 20 units/ml, early. The method, then: as §1
The subject of assay [5] is CAF-13. The experiment in a line: 2D electrophoresis fold change of CAF-13 in primary cultures of human airway myofibroblasts. Conditions: thrombin 20 units/ml. The class given is cell-based. The protocol:
as §1

The subject of assay [6] is CAF-15. Description: 2D electrophoresis fold change of CAF-15 in primary cultures of human airway myofibroblasts. Type of assay: cell-based. Conditions: thrombin 20 units/ml. The method, then: as §1
Assay [7] relates to CAF-18. Description: 2D electrophoresis fold change of CAF-18 in primary cultures of human airway myofibroblasts. Type of assay: cell-based. To be noted: thrombin 20 units/ml. The method, then:
as §1

In assay [8] the test system is CAF-19. The experiment in a line: 2D electrophoresis fold change of CAF-19 in primary cultures of human airway myofibroblasts. The class given is cell-based. Conditions: thrombin 20 units/ml, late. The protocol: as §1
Assay [9] has as its system CAF-20. The experiment in a line: 2D electrophoresis fold change of CAF-20 in primary cultures of human airway myofibroblasts. Conditions: thrombin 20 units/ml, early. The class given is cell-based. The method, then: as §1
Assay [10] deals with CAF-22. The experiment in a line: 2D electrophoresis fold change of CAF-22 in primary cultures of human airway myofibroblasts. The class given is cell-based. To be noted: thrombin 20 units/ml, early. The method, then: as §1
The test system of assay [11] is CAF-24. Description: 2D electrophoresis fold change of CAF-24 in primary cultures of human airway myofibroblasts. Type of assay: cell-based. Conditions: thrombin 20 units/ml, early. The protocol:
as §1

The test system of assay [12] is CAF-25. The experiment in a line: 2D electrophoresis fold change of CAF-25 in primary cultures of human airway myofibroblasts. Type of assay: cell-based. To be noted: thrombin 20 units/ml. The method, then: as §1
Assay [13] deals with CAF-33. Description: 2D electrophoresis fold change of CAF-33 in primary cultures of human airway myofibroblasts. Type of assay: cell-based. To be noted: thrombin 20 units/ml, late. The protocol:
as §1

The test system of assay [14] is CAF-35. The experiment in a line: 2D electrophoresis fold change of CAF-35 in primary cultures of human airway myofibroblasts. Type of assay: cell-based. To be noted: thrombin 20 units/ml, late. The method, then: as §1
Assay [15] has as its system CAF-3. Description: 2D electrophoresis fold change of CAF-3 in primary cultures of human airway myofibroblasts. The class given is cell-based. Conditions: thrombin 20 units/ml. The protocol:
as §1

Assay [16] relates to CAF-21. Description: 2D electrophoresis fold change of CAF-21 in primary cultures of human airway myofibroblasts. The class given is cell-based. Conditions: thrombin 20 units/ml. The method, then:
as §1

Assay [17] has as its system CAF-29. The experiment in a line: 2D electrophoresis fold change of CAF-29 in primary cultures of human airway myofibroblasts. Type of assay: cell-based. To be noted: thrombin 20 units/ml. The method, then:
as §1

Assay [18] deals with CAF-34. Description: 2D electrophoresis fold change of CAF-34 in primary cultures of human airway myofibroblasts. Type of assay: cell-based. To be noted: thrombin 20 units/ml. The method, then: as §1

On to `Cn1c(=O)c2[nH]cnc2n(C)c1=O` [theophylline], for which the “Fold change following 1 h thrombin and 1 h theophylline relative to cells treated with thrombin alone” value amounted to 3.518 in [1] (theophylline 100 μM, early); 4.912 in assay [2] (theophylline 100 μM, early); 2.306 in assay [3] (theophylline 100 μM, early); 39.410 in assay [4] (theophylline 100 μM); 4.288 in assay [5] (theophylline 100 μM, early); 16.824 in assay [6] (theophylline 100 μM, early). Besides, the “Fold change following 1 h thrombin and 1 h theophylline relative to cells treated with thrombin alone” value is 26.692 in assay [7] (theophylline 100 μM, early); 29.086 in [9] (theophylline 100 μM); −2.096 in assay [10] (theophylline 100 μM); 19.892 in assay [11] (theophylline 100 μM); 10.216 in assay [12] (theophylline 100 μM, early). The “Fold change following 6 h thrombin and 7 h theophylline relative to cells treated with thrombin alone” value in assay [1] (theophylline 100 μM, late) was −2.122; in assay [6] (theophylline 100 μM, late) it was −2.077; in [7] (theophylline 100 μM, late) it was 2.839. The “Fold change following 6 h thrombin and 6 h theophylline relative to cells treated with thrombin alone” value was 2.800 in assay [8] (theophylline 100 μM); 19.320 in assay [12] (theophylline 100 μM, late); 2.031 in assay [13] (theophylline 100 μM); 2.182 in [14] (theophylline 100 μM).

Turning to thrombin, the “Fold change following 1 h thrombin, relative to untreated cells” value in assay [1] (early) is −4.393; in [2] (early), 7.832; in assay [15] (early), −2.976; in assay [3] (early) it was −3.486; in assay [4], −51.041; in [5] (early), −2.425. The “Fold change following 1 h thrombin, relative to untreated cells” value in assay [6] (early) is recorded as −14.045; in assay [7] (early) it was −19.780; in [9], −16.512; in [16] (early) it was −4.110; in assay [10], 1.733; in assay [11], −332.863. Further, the “Fold change following 1 h thrombin, relative to untreated cells” value in assay [12] (early) is given as −8.122; in assay [17] (early) it was 2.597; in [18] (early), 2.741. In addition, the “Fold change following 6 h thrombin, relative to untreated cells” value was 2.463 in assay [1] (late); 14.593 in assay [2] (late); 2.120 in [15] (late); −2.846 in assay [3] (late); 3.292 in [5] (late); 3.037 in assay [6] (late). For the same compound, the “Fold change following 6 h thrombin, relative to untreated cells” value in assay [7] (late) is 16.517; in assay [8], −2.815; in [16] (late), 4.186; in [12] (late) it was −4.750; in assay [17] (late) it was 2.169; in [13] it was −4.459. Also, the “Fold change following 6 h thrombin, relative to untreated cells” value in assay [18] (late) was 5.005; in [14], −3.705.

Take `C[C@@H]1C[C@H]2[C@@H]3CCC4=CC(=O)C=C[C@]4(C)[C@@]3(F)[C@@H](O)C[C@]2(C)[C@@]1(O)C(=O)CO` [Dexamethasone, dexamethasone]: the “Fold change following 1 h thrombin and 1 h Dexamethasone relative to cells treated with thrombin alone” value turned out to be 4.713 in assay [1] (dexamethasone 1 μM, early); 2.438 in assay [15] (dexamethasone 1 μM, early); 21.529 in assay [4] (dexamethasone 1 μM); 5.677 in [5] (dexamethasone 1 μM, early); 4.619 in assay [6] (dexamethasone 1 μM, early); 8.553 in assay [7] (dexamethasone 1 μM, early). Moreover, the “Fold change following 1 h thrombin and 1 h Dexamethasone relative to cells treated with thrombin alone” value in [9] (dexamethasone 1 μM) is on record as 20.554; in assay [10] (dexamethasone 1 μM), −2.909; in assay [11] (dexamethasone 1 μM), 75.754; in assay [12] (dexamethasone 1 μM, early) it was 5.245. Also, the “Fold change following 6 h thrombin and 7 h Dexamethasone relative to cells treated with thrombin alone” value in [6] (dexamethasone 1 μM, late) was −2.423; in assay [7] (dexamethasone 1 μM, late), −15.966; in assay [17] (dexamethasone 1 μM, late), −2.142.
